# Laboratory results as given in ChEMBL document CHEMBL1201862, “PubChem BioAssay data set” (2004).
#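 48-hour exposure; five concentrations; linearly interpolated endpoints. GI50 = concentration required for 50% inhibition of growth.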 Active and inactive are the calls of the source. Rule as the data show it: active = GI50 up to about 1.1 µM and inactive = higher.
# Assays:
# Assay in all cases: inhibition of tumour cell growth, NCI panel, 48 h
# [1] = system: 786-0
# [2] = system: A549
# [3] = system: ACHN
# [4] = system: HOP-62
# [5] = system: IGROV-1
# [6] = system: MDA-N
# [7] = system: MOLT-4
# [8] = system: Malme-3M
# [9] = system: NCI-H23
# [10] = system: NCI-H522
# [11] = system: OVCAR-3
# [12] = system: OVCAR-8
# [13] = system: SK-MEL-28
# [14] = system: SK-MEL-5
# [15] = system: SK-OV-3
# [16] = system: SNB-75
# [17] = system: U-251
# [18] = system: SF-539
# [19] = system: UACC-257
SMILES,GI50 [1],GI50 [2],GI50 [3],GI50 [4],GI50 [5],GI50 [6],GI50 [7],GI50 [8],GI50 [9],GI50 [10],GI50 [11],GI50 [12],GI50 [13],GI50 [14],GI50 [15],GI50 [16],GI50 [17],GI50 [18],GI50 [19]
O=C(O)CNC(=O)c1ccc([As](=O)(O)O)cc1,> 100 µM (inactive),> 100 µM (inactive),> 100 µM (inactive),> 100 µM (inactive),> 100 µM (inactive),> 100 µM (inactive),> 100 µM (inactive),> 100 µM (inactive),> 100 µM (inactive),> 100 µM (inactive),> 100 µM (inactive),> 100 µM (inactive),> 100 µM (inactive),> 100 µM (inactive),> 100 µM (inactive),> 100 µM (inactive),> 100 µM (inactive),–,–
Nc1cc(OCc2ccccc2)c(OCc2ccccc2)cc1C=O,17.5 µM (inactive),23.8 µM (inactive),26 µM (inactive),> 10 µM (inactive),31.2 µM (inactive),39.5 µM (inactive),18.6 µM (inactive),–,> 10 µM (inactive),0.141 µM (active),–,26.4 µM (inactive),42.1 µM (inactive),24.7 µM (inactive),52.5 µM (inactive),52.8 µM (inactive),28.4 µM (inactive),5.83 µM (inactive),85.9 µM (inactive)
Cc1ccc(C(=O)/C=C2\Nc3ccccc3NC2=O)cc1,2.49 µM (inactive),4.94 µM (inactive),3.4 µM (inactive),2.04 µM (inactive),1.07 µM (active),32.6 µM (inactive),> 100 µM (inactive),2.48 µM (inactive),8.05 µM (inactive),2.49 µM (inactive),2.99 µM (inactive),3.08 µM (inactive),5.3 µM (inactive),10.4 µM (inactive),2.19 µM (inactive),–,8.13 µM (inactive),4.78 µM (inactive),12.4 µM (inactive)
CCOC(=O)Cc1csc(N/N=C2\C(=O)Nc3ccccc32)n1,69.5 µM (inactive),41.6 µM (inactive),32.4 µM (inactive),36.5 µM (inactive),17.4 µM (inactive),41.8 µM (inactive),29 µM (inactive),–,32.6 µM (inactive),19 µM (inactive),25.3 µM (inactive),40.6 µM (inactive),–,21.7 µM (inactive),49.4 µM (inactive),28.2 µM (inactive),42.4 µM (inactive),30.7 µM (inactive),74.5 µM (inactive)
CCOC1OC(CO)C(O)CC1n1ccc(=O)[nH]c1=O (stereo unspecified),> 100 µM (inactive),> 100 µM (inactive),> 100 µM (inactive),–,> 100 µM (inactive),> 100 µM (inactive),–,> 100 µM (inactive),> 100 µM (inactive),30.3 µM (inactive),> 100 µM (inactive),> 100 µM (inactive),> 100 µM (inactive),> 100 µM (inactive),–,> 100 µM (inactive),> 100 µM (inactive),> 100 µM (inactive),> 100 µM (inactive)
C=CCCCCOC1C=CC(O)C(CO)O1 (stereo unspecified),> 100 µM (inactive),> 100 µM (inactive),> 100 µM (inactive),> 100 µM (inactive),> 100 µM (inactive),> 100 µM (inactive),> 100 µM (inactive),> 100 µM (inactive),> 100 µM (inactive),> 100 µM (inactive),> 100 µM (inactive),> 100 µM (inactive),> 100 µM (inactive),> 100 µM (inactive),> 100 µM (inactive),–,> 100 µM (inactive),> 100 µM (inactive),> 100 µM (inactive)
COc1ccc(-n2cnc3c(NCC(=O)O)ncnc32)cc1,> 100 µM (inactive),> 100 µM (inactive),> 100 µM (inactive),> 100 µM (inactive),> 100 µM (inactive),> 100 µM (inactive),> 100 µM (inactive),54.1 µM (inactive),> 100 µM (inactive),> 100 µM (inactive),> 100 µM (inactive),> 100 µM (inactive),> 100 µM (inactive),> 100 µM (inactive),> 100 µM (inactive),> 100 µM (inactive),> 100 µM (inactive),–,> 100 µM (inactive)
COC(=O)CCCc1ccc2c(c1)CC1(Cc3ccccc3C1)C2,> 100 µM (inactive),58.9 µM (inactive),75.3 µM (inactive),> 100 µM (inactive),> 100 µM (inactive),23.2 µM (inactive),0.333 µM (active),87.1 µM (inactive),46.3 µM (inactive),47.6 µM (inactive),62.2 µM (inactive),70.1 µM (inactive),–,20.1 µM (inactive),> 100 µM (inactive),–,> 100 µM (inactive),> 100 µM (inactive),32.2 µM (inactive)
COc1cc(NS(C)(=O)=O)ccc1Nc1ccnc2ccc3[nH]ccc3c12,14.6 µM (inactive),18.3 µM (inactive),18.4 µM (inactive),15.8 µM (inactive),16.1 µM (inactive),16.2 µM (inactive),–,14.1 µM (inactive),13.7 µM (inactive),5.6 µM (inactive),15.3 µM (inactive),13.6 µM (inactive),16.6 µM (inactive),15.3 µM (inactive),–,–,14 µM (inactive),–,18.2 µM (inactive)
Cc1ccc(O)c(C2=NNC(c3cccc(Br)c3)C2)c1 (stereo unspecified),> 100 µM (inactive),44.5 µM (inactive),34.3 µM (inactive),86.3 µM (inactive),13 µM (inactive),28.8 µM (inactive),32.8 µM (inactive),> 100 µM (inactive),76.6 µM (inactive),28.5 µM (inactive),62.2 µM (inactive),98.9 µM (inactive),–,71.3 µM (inactive),34.3 µM (inactive),–,43.7 µM (inactive),74.1 µM (inactive),48.9 µM (inactive)
CSc1nc2c(c(N(C)C)n1)C=Nn1c(nc3ccccc31)S2,65 µM (inactive),69 µM (inactive),61.2 µM (inactive),84.3 µM (inactive),> 100 µM (inactive),95.1 µM (inactive),> 100 µM (inactive),91 µM (inactive),> 100 µM (inactive),55.5 µM (inactive),> 100 µM (inactive),74.3 µM (inactive),> 100 µM (inactive),52.1 µM (inactive),> 100 µM (inactive),64.1 µM (inactive),> 100 µM (inactive),–,99.1 µM (inactive)
O=C(Nc1c(C(F)(F)F)cc(-c2ccccc2)[nH]c1=O)N1CCOCC1,> 100 µM (inactive),79.1 µM (inactive),> 100 µM (inactive),> 100 µM (inactive),> 100 µM (inactive),77.1 µM (inactive),> 100 µM (inactive),> 100 µM (inactive),> 100 µM (inactive),89.1 µM (inactive),70.8 µM (inactive),> 100 µM (inactive),> 100 µM (inactive),38.1 µM (inactive),> 100 µM (inactive),> 100 µM (inactive),78.5 µM (inactive),–,78.3 µM (inactive)
S=C1N(/N=C/c2c3ccccc3cc3ccccc23)C(=N\c2ccccc2)/C(=N/c2ccccc2)N1c1ccccc1,> 100 µM (inactive),> 100 µM (inactive),–,> 100 µM (inactive),> 100 µM (inactive),> 100 µM (inactive),> 100 µM (inactive),> 100 µM (inactive),> 100 µM (inactive),> 100 µM (inactive),> 100 µM (inactive),> 100 µM (inactive),> 100 µM (inactive),> 100 µM (inactive),> 100 µM (inactive),–,> 100 µM (inactive),> 100 µM (inactive),> 100 µM (inactive)
CCCCCCCCCCCCCCCCOCC(CC(F)(F)P(=O)(O)O)OC(C)=O (stereo unspecified),> 50 µM (inactive),> 50 µM (inactive),> 50 µM (inactive),15.1 µM (inactive),> 50 µM (inactive),> 50 µM (inactive),> 50 µM (inactive),> 50 µM (inactive),> 50 µM (inactive),> 50 µM (inactive),> 50 µM (inactive),–,> 50 µM (inactive),> 50 µM (inactive),> 50 µM (inactive),> 50 µM (inactive),> 50 µM (inactive),–,> 50 µM (inactive)
C/C(=N\Nc1nc2ccccc2o1)c1cccc[n+]1[O-],21.7 µM (inactive),24.5 µM (inactive),12.6 µM (inactive),10.5 µM (inactive),16.1 µM (inactive),60.7 µM (inactive),1.5 µM (inactive),2.27 µM (inactive),26.6 µM (inactive),3.86 µM (inactive),2.69 µM (inactive),20 µM (inactive),24.8 µM (inactive),23.9 µM (inactive),22.5 µM (inactive),–,8.26 µM (inactive),23.4 µM (inactive),13 µM (inactive)
c1ccc([P+](c2ccccc2)(c2ccccc2)c2ccc(-c3ccc([P+](c4ccccc4)(c4ccccc4)c4ccccc4)cc3)cc2)cc1,25.9 µM (inactive),27.7 µM (inactive),23.1 µM (inactive),46.5 µM (inactive),3.67 µM (inactive),29.3 µM (inactive),> 100 µM (inactive),25.3 µM (inactive),21.9 µM (inactive),18.3 µM (inactive),15.8 µM (inactive),19.4 µM (inactive),49.5 µM (inactive),1.56 µM (inactive),43.2 µM (inactive),–,7.94 µM (inactive),40 µM (inactive),19.8 µM (inactive)
